Earlier results in patent publication US20170209405A1, “APPLICATION OF COMPOUND MIXTURES TO CONTROL OXIDATION” (priority 2016, published 2017).

Key:
[1] = adults
[2] = system: sperm DNA damage (DNA-strand breaks); settings: men aged 45 and up, highest dosages of vitamin C (up to 700 mg daily)

Structure (SMILES)	dose above which it may be toxic to the liver [1]	less DNA damage than those who took less of the supplements [2]
NC(=O)c1cccnc1 [nicotinamide]	exceeding 3 g/day	–
O=C1O[C@H]([C@@H](O)CO)C(O)=C1O [vitamin C]	–	20%
